Measured values from US9650339B2, “Inhibitors of histone demethylases” (Gilead Sciences, Inc., priority 2013, dated 2017).

Legend:
KDM7 (PHF8) = target: T1, KDM7 (PHF8) (Homo sapiens, UniProt Q9UPP1); experiment: Histone lysine demethylase AlphaLISA assay, KDM7; format: biochemical; details: read-out: PHF8 HDME Inhibition IC50
T1 construct: KDM7 (PHF8); BRIC; 1-1322; Bac
Protocol: (§1) Assays are performed analogously to the protocol described by PerkinElmer (Roy et al. PerkinElmer Technical Note: AlphaLISA #12, April 2011)
Enzymes are dissolved in enzyme buffer and incubated for 10 min before being added to 3% DMSO solutions of compounds in enzyme buffer. Incubated for another 10 minutes, before substrate solution is added and the reaction mixture is incubated at room temperature. 10 μL acceptor beads, suspended in Epigenetic Buffer (Perkin Elmer AL008) from stock, are added and the suspension is incubated in the dark at room temperature, before a suspension of streptavidin donor beads (Perkin Elmer 6760002) in Epigenetic Buffer is added. After incubation at room temperature in the dark the plates are read. […]
BK9M2: Biotin-ARTKQTAR(KMe2)STGGKAPRKQ-NH2 (AnaSpec 64359)
BK9M1: Biotin-ARTKQTAR(KMe1)STGGKAPRKQ-NH2 (AnaSpec 64358) […]
(§2) Substrate Solution: Substrate, 25 μM L-Asc, and 10 μM α-KG in Buffer A.

KDM4A (JMJD2A) = target: T2, KDM4A (JMJD2A) (Homo sapiens, UniProt O75164); experiment: Histone lysine demethylase AlphaLISA assay, KDM4A; format: biochemical; details: read-out: KDM4A HDME Inhibition IC50
T2 construct: 1-350; purchased BPS Bioscience, US; host or cells: E. coli
T2 sequence (O75164 1-350): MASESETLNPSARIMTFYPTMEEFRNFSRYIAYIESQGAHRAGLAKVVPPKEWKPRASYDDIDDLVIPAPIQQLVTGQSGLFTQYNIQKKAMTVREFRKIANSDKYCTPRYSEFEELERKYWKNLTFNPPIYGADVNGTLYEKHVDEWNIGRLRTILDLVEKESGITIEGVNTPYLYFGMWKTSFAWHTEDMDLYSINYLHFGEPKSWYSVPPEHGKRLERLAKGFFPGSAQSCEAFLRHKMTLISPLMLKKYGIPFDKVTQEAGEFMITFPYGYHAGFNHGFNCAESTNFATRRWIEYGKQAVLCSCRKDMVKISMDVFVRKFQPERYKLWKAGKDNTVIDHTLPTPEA
Protocol: as §1
Enzymes are dissolved in enzyme buffer and incubated for 10 min before being added to 3% DMSO solutions of compounds in enzyme buffer. Incubated for another 10 minutes, before substrate solution is added and the reaction mixture is incubated at room temperature. 10 μL acceptor beads, suspended in Epigenetic Buffer (Perkin Elmer AL008) from stock, are added and the suspension is incubated in the dark at room temperature, before a suspension of streptavidin donor beads (Perkin Elmer 6760002) in Epigenetic Buffer is added. After incubation at room temperature in the dark the plates are read.
BK9M3: Biotin-ARTKQTAR(KMe3)STGGKAPRKQ-NH2 (Caslo, Denmark) […]
as §2

KDM4C = target: T3, KDM4C (Homo sapiens, UniProt Q9H3R0); experiment: Histone lysine demethylase immunofluorescence assay, U2OS cells transfected with KDM4C; format: cell-based; details: U2OS cells transfected with pCMVHA KDM4C; mark detected H3K9me3; 20 hours
T3 construct: Full length; host or cells: U2OS
T3 sequence (Q9H3R0 1-1056): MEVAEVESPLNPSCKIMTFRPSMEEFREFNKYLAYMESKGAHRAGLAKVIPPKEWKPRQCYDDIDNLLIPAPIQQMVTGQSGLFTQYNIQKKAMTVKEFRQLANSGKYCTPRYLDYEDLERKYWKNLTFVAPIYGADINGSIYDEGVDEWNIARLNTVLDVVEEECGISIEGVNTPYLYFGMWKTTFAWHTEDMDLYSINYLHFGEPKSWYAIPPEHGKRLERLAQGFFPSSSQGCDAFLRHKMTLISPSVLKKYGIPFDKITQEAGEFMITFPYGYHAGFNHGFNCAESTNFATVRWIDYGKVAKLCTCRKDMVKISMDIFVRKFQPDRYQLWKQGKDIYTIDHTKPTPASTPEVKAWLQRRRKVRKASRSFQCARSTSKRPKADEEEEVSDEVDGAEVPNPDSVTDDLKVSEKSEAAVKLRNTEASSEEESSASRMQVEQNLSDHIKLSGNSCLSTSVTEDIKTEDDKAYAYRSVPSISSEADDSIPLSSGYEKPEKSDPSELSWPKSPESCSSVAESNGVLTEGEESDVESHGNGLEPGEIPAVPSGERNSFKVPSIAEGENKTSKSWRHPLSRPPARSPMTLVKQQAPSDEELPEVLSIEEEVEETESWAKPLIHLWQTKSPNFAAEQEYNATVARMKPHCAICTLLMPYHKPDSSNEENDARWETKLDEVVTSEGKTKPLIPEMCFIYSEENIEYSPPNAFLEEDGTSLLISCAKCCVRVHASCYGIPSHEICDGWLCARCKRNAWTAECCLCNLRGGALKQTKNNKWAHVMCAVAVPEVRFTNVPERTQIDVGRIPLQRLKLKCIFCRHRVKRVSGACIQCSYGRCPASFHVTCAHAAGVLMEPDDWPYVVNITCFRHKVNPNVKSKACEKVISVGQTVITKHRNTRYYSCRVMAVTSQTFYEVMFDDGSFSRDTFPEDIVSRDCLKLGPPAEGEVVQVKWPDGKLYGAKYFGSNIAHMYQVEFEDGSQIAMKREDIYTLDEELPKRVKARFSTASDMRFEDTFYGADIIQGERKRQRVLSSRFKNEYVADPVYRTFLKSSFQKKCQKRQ
Protocol: U2OS cells were seeded 24 hours before transfection. Transfection was performed with Fugene HD transfection reagent as recommended by the manufacturer. 6 hours after transfection, the cells were harvested and seeded into multi well plates into media containing compound. The media used was DMEM containing 10% FBS and pen/strep. 20 hours after incubation of cells with compounds, the cells were washed in PBS, harvested by fixation with formaldehyde 4% aqueous solution, and washed in PBS. Subsequently, the cells were permeabilized in PBS with 0.2% Triton X-100 for. Blocking was performed in PBS with 0.2% Triton X-100 and 5% FBS. The cells were incubated with primary antibodies in blocking solution over night at 4° C. The primary antibodies used in the assays were HA.11 (Covance, MMS-101P) and the antibody detecting the mark specified in the table below. After incubation with primary antibodies, the cells were washed with PBS, incubated with secondary antibodies (Alexa fluor 594 goat anti rabbit IgG, Invitrogen, A11012; Alexa flour 488 donkey anti mouse IgG, Invitrogen, A21202) and Hoechst, (Sigma, 33342) in blocking solution, and washed again with PBS. Finally, PBS was added and high throughput imaging and analysis were performed by an IN Cell Analyzer 1000 (GE Healthcare). The robot software analyzed individual cells and divided these into HA+ (transfected cells) and HA− (non-transfected cells). The IC50 values were based on an average measure of the staining of the mark specified in the table below in the transfected cells.

T1 sequence (Q9UPP1 37-440 limits assumed): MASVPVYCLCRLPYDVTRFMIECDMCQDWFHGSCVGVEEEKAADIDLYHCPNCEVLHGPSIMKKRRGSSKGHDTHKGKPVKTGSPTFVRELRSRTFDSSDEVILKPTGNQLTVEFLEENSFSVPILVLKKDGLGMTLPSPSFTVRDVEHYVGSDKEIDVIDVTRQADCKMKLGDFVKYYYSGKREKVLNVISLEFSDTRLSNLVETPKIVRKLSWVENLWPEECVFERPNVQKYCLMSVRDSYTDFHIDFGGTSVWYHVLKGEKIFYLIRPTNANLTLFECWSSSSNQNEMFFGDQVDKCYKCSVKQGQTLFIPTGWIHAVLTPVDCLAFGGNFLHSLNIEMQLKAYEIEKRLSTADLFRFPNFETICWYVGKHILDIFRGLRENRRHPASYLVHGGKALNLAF

Structure (SMILES) | IC50 (KDM7 (PHF8)) | IC50 (KDM4A (JMJD2A)) | IC50 (KDM4C)
CCN(CCN(C)C)C(=O)CNCc1cc(CN)ccn1 [Compound 4, 2-({[4-(aminomethyl)pyridin-2-yl]methyl}amino)-N-[2-(dimethylamino)ethyl]-N-ethylacetamide] | 0.25 to 2.5 µM | 0.25 to 2.5 µM | 0.25 to 2.5 µM
CCN(CC)CCCCNCc1cc(CN)ccn1 [Compound 5, [2-({[4-(diethylamino)butyl]-amino}methyl)pyridin-4-yl]methanamine] | > 2.5 µM | > 2.5 µM | 0.25 to 2.5 µM
CCN(CC)CCCCN(Cc1cc(CNC(=O)C(F)(F)F)ccn1)C(=O)C(F)(F)F [Compound 6, N-[4-(diethylamino)butyl]-- 2,2,2-trifluoro-N-({4-[(trifluoroacetamido)-methyl]pyridin-2-yl}methyl)acetamide] | 0.25 to 2.5 µM | 0.25 to 2.5 µM | > 2.5 µM
NCc1ccnc(CNCCCCN2CCC2)c1 [Compound 7, [2-({[4-(azetidin-1-yl)butyl]amino}methyl)-pyridin-4-yl]-methanamine] | > 2.5 µM | > 2.5 µM | > 2.5 µM
CN(C)CCCCCNCc1cc(CN)ccn1 [Compound 8, [2-({[5-(dimethylamino)pentyl]-amino}methyl)pyridin-4-yl]methanamine] | > 2.5 µM | > 2.5 µM | 0.25 to 2.5 µM
COc1ccccc1CN1CCC(NC(=O)CNCc2cc(CN)ccn2)CC1 [Compound 9, 2-({[4-(aminomethyl)pyridin-2-yl]methyl}amino)-N-{1-[(2-methoxyphenyl)methyl]-piperidin-4-yl}acetamide] | > 2.5 µM | > 2.5 µM | > 2.5 µM
CN(C)CCCCNCc1cc(CNC2CC2)ccn1 [Compound 10, N-{[2-({[4-(dimethylamino)butyl]-amino}methyl)pyridin-4-yl]methyl}-cyclopropanamine] | > 2.5 µM | > 2.5 µM | > 2.5 µM
CC1CCCCN1CCCNCc1cc(CNC2CC2)ccn1 (stereo not drawn) [Compound 11, N-{[2-({[3-(2-methylpiperidin-1-yl)propyl]amino}methyl)-pyridin-4-yl]methyl}-cyclopropanamine] | > 2.5 µM | > 2.5 µM | > 2.5 µM
CCCNCc1cc(CNC2CC2)ccn1 [Compound 12, N-({2-[(propylamino)methyl]-pyridin-4-yl}methyl)-cyclopropanamine] | > 2.5 µM | > 2.5 µM | > 2.5 µM
CN(C)C(=O)CNCc1cc(CNCC#N)ccn1 [Compound 13, 2-{[(4-{[(cyanomethyl)amino]-methyl}pyridin-2-yl)methyl]amino}-N,N-dimethylacetamide] | > 2.5 µM | > 2.5 µM | 0.25 to 2.5 µM
CN(C)C(=O)CNCc1cc(CNCCF)ccn1 [Compound 14, 2-{[(4-{[(2-fluoroethyl)amino]-methyl}pyridin-2-yl)methyl]amino}-N,N-dimethylacetamide] | > 2.5 µM | > 2.5 µM | > 2.5 µM
CN(C)CCNCc1ccnc(CNCC(=O)N(C)C)c1 [Compound 15, 2-({[4-({[2-(dimethylamino)ethyl]-amino}methyl)pyridin-2-yl]methyl}amino)-N,N-dimethylacetamide] | > 2.5 µM | > 2.5 µM | > 2.5 µM
CNCc1ccnc(CNCCCN(C)Cc2ccccc2)c1 [Compound 17, benzyl(methyl){3-[({4-[(methylamino)methyl]-pyridin-2-yl)methyl)-amino]propyl}-amine] | > 2.5 µM | > 2.5 µM | > 2.5 µM
CN(C)CCNCc1cc(CNC(C#N)C2CC2)ccn1 (stereo not drawn) [Compound 21, 2-cyclopropyl-2-({[2-({[2-(dimethylamino)ethyl]-amino}methyl)pyridin-4-yl]methyl}amino)-acetonitrile] | > 2.5 µM | > 2.5 µM | > 2.5 µM
CC(C#N)NCc1ccnc(CNCCCN(C)C)c1 (stereo not drawn) [Compound 22, 2-({[2-({[3-(dimethylamino)propyl]-amino}methyl)pyridin-4-yl]methyl}amino)-propanenitrile] | > 2.5 µM | > 2.5 µM | > 2.5 µM
N#CCNCc1ccnc(CNCCCCN(Cc2ccccc2)C2CC2)c1 [Compound 23, 2-[({2-[({4-[benzyl(cyclopropyl)-amino]butyl}amino)-methyl]pyridin-4-yl}methyl)amino]-acetonitrile] | > 2.5 µM | > 2.5 µM | > 2.5 µM
CNC(C#N)c1ccnc(CNCCCN(C)C)c1 (stereo not drawn) [Compound 24, 2-[2-({[3-(dimethylamino)propyl]-amino}methyl)pyridin-4-yl]-2-(methylamino)-acetonitrile] | > 2.5 µM | 0.25 to 2.5 µM | > 2.5 µM
CN(C)C(=O)CNCc1cc(/C=N\C2CC2)ccn1 [Compound 33] | > 2.5 µM | < 0.25 µM | 0.25 to 2.5 µM
CN(C)C(=O)CNCc1cc(/C=N/CCCc2ccccc2)ccn1 [Compound 34, N,N-dimethyl-2-[({4-[[(3-phenylpropyl)imino]-methyl]pyridin-2-yl}methyl)amino]-acetamide] | > 2.5 µM | > 2.5 µM | > 2.5 µM
CC1CC1/N=C/c1ccnc(CNCC(=O)N(C)C)c1 (stereo not drawn) [Compound 35, N,N-dimethyl-2-[({4-[N-(2-methylcyclopropyl)-carboximidoyl]pyridin-2-yl}methyl)amino]-acetamide] | < 0.25 µM | < 0.25 µM | 0.25 to 2.5 µM
CN(C)C(=O)CNCc1cc(/C=N/CCC2CCCCC2)ccn1 [Compound 36, 2-[({4-[[(2-cyclohexylethyl)imino]-methyl]pyridin-2-yl}methyl)amino]-N,N-dimethylacetamide] | 0.25 to 2.5 µM | 0.25 to 2.5 µM | > 2.5 µM
